Measured values: PubChem BioAssay (NCI)
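Exposure lasted 48 hours, with cells grown in 96-well plates and compounds tested at five concentrations. GI50 is the concentration that inhibits growth by half. TGI denotes the concentration required for complete inhibition of growth.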

Legend:
Experiment in all cases: growth of human tumour cells (NCI), 48 h
[1] = test system: 786-0 renal
[2] = test system: A498 renal
[3] = test system: A549 NSCLC
[4] = test system: ACHN renal
[5] = test system: BT-549 breast
[6] = test system: CAKI-1 renal
[7] = test system: CCRF-CEM leukemia
[8] = test system: COLO 205 colon
[9] = test system: DU-145 prostate
[10] = test system: HCC-2998 colon
[11] = test system: HCT-116 colon
[12] = test system: HCT-15 colon
[13] = test system: HL-60(TB) leukemia
[14] = test system: HOP-62 NSCLC
[15] = test system: HOP-92 NSCLC
[16] = test system: HS 578T breast
[17] = test system: HT29 colon
[18] = test system: IGROV1 ovarian
[19] = test system: K-562 leukemia
[20] = test system: KM12 colon
[21] = test system: LOX IMVI melanoma
[22] = test system: M14 melanoma
[23] = test system: MALME-3M melanoma
[24] = test system: MCF7 breast
[25] = test system: MDA-MB-231 breast
[26] = test system: MDA-MB-435
[27] = test system: MOLT-4 leukemia
[28] = test system: NCI-H226 lung
[29] = test system: NCI-H23 lung
[30] = test system: NCI-H460 lung
[31] = test system: NCI-H522 lung
[32] = test system: NCI/ADR-RES ovarian
[33] = test system: OVCAR-3 ovarian
[34] = test system: OVCAR-4 ovarian
[35] = test system: OVCAR-5 ovarian
[36] = test system: OVCAR-8 ovarian
[37] = test system: PC-3 prostate
[38] = test system: RPMI-8226 leukemia
[39] = test system: RXF 393 renal
[40] = test system: SF-268 CNS
[41] = test system: SF-295 CNS
[42] = test system: SF-539 CNS
[43] = test system: SK-MEL-2 melanoma
[44] = test system: SK-MEL-28 melanoma
[45] = test system: SK-MEL-5 melanoma
[46] = test system: SK-OV-3 ovarian
[47] = test system: SN12C renal
[48] = test system: SNB-19 CNS
[49] = test system: SNB-75 CNS
[50] = test system: SR leukemia
[51] = test system: SW-620 colon
[52] = test system: T-47D breast
[53] = test system: TK-10 renal
[54] = test system: U251 CNS
[55] = test system: UACC-257 melanoma
[56] = test system: UACC-62 melanoma
[57] = test system: UO-31 renal

COc1cc(OC)c(/C=C/c2c3ccccc3cc[n+]2C)c(OC)c1
GI50 [1]: 7.37 µM
TGI [1]: > 100 µM
GI50 [2]: 1 µM
TGI [2]: 7.26 µM
GI50 [3]: 2.13 µM
TGI [3]: > 100 µM
GI50 [4]: 10.9 µM
TGI [4]: > 100 µM
GI50 [5]: 1.58 µM
TGI [5]: 21.8 µM
GI50 [6]: 18.6 µM
TGI [6]: > 100 µM
GI50 [7]: 2.08 µM
TGI [7]: > 72.1 µM
GI50 [8]: 0.774 µM
TGI [8]: 2.95 µM
GI50 [9]: 2.96 µM
TGI [9]: 48.8 µM
GI50 [10]: 1.65 µM
TGI [10]: 14.7 µM
GI50 [11]: 1.4 µM
TGI [11]: 13.5 µM
GI50 [12]: 24.7 µM
TGI [12]: > 100 µM
GI50 [13]: 0.811 µM
TGI [13]: 7.32 µM
GI50 [14]: 3.52 µM
TGI [14]: > 33.7 µM
GI50 [15]: 1.8 µM
TGI [15]: 12.4 µM
GI50 [16]: 2.43 µM
TGI [16]: 37.5 µM
GI50 [17]: 1.64 µM
TGI [17]: 10.3 µM
GI50 [18]: 2.32 µM
TGI [18]: 19.8 µM
GI50 [19]: 0.863 µM
TGI [19]: > 100 µM
GI50 [20]: 0.673 µM
TGI [20]: 6.85 µM
GI50 [21]: 2.01 µM
TGI [21]: 5.9 µM
GI50 [22]: 2.62 µM
TGI [22]: 15.4 µM
GI50 [23]: 2.32 µM
TGI [23]: 15.4 µM
GI50 [24]: 1.02 µM
TGI [24]: 18.2 µM
GI50 [25]: 3.46 µM
TGI [25]: 31.4 µM
GI50 [26]: 0.781 µM
TGI [26]: 10.1 µM
GI50 [27]: 3.1 µM
TGI [27]: 32.8 µM
GI50 [28]: 2.73 µM
TGI [28]: > 100 µM
GI50 [29]: 1.29 µM
TGI [29]: 25.8 µM
GI50 [30]: 1.82 µM
TGI [30]: 8.83 µM
GI50 [31]: 1.52 µM
TGI [31]: 6.49 µM
GI50 [32]: > 85.5 µM
TGI [32]: > 100 µM
GI50 [33]: 1.23 µM
TGI [33]: 9.78 µM
GI50 [34]: 1.15 µM
TGI [34]: > 100 µM
GI50 [35]: 3.04 µM
TGI [35]: > 49 µM
GI50 [36]: 2.27 µM
TGI [36]: 12.4 µM
GI50 [37]: 0.943 µM
TGI [37]: > 37.9 µM
GI50 [38]: 0.377 µM
TGI [38]: 6.92 µM
GI50 [39]: 4.99 µM
TGI [39]: > 51.3 µM
GI50 [40]: 2.54 µM
TGI [40]: 19.3 µM
GI50 [41]: 2.17 µM
TGI [41]: > 53.4 µM
GI50 [42]: 2.1 µM
TGI [42]: 9.17 µM
GI50 [43]: 2.64 µM
TGI [43]: 6.3 µM
GI50 [44]: 2.34 µM
TGI [44]: 13.2 µM
GI50 [45]: 0.642 µM
TGI [45]: 2.21 µM
GI50 [46]: 3.58 µM
TGI [46]: > 100 µM
GI50 [47]: 2.31 µM
TGI [47]: 18.6 µM
GI50 [48]: 1.88 µM
TGI [48]: 25 µM
GI50 [49]: 1.27 µM
TGI [49]: 8.01 µM
GI50 [50]: 2 µM
TGI [50]: 41.2 µM
GI50 [51]: 2.12 µM
TGI [51]: 14.2 µM
GI50 [52]: 0.541 µM
TGI [52]: > 26.2 µM
GI50 [53]: 3.27 µM
TGI [53]: 23.1 µM
GI50 [54]: 1.1 µM
TGI [54]: 14.1 µM
GI50 [55]: 0.674 µM
TGI [55]: 6.01 µM
GI50 [56]: 1.51 µM
TGI [56]: 9.58 µM
GI50 [57]: 18.5 µM
TGI [57]: > 100 µM
